In patent US20090054403A1, “Treatment of Post-Traumatic Stress Disorder” (priority 2007, published 2009):

Assays:
D2 dopamine receptors = D2 dopamine receptors (Homo sapiens, UniProt P14416); assay: Radioligand binding assay
Experimental: (§1) The activity of nepicastat at twelve selected enzymes and receptors was determined using established assays. Details of individual receptor radioligand binding assays can be found in Wong et al (1993). Binding data were analyzed by iterative curve-fitting to a four parameter logistic equation. Ki values were calculated from IC50 values using the Cheng-Prusoff equation. Enzyme inhibitory activity was expressed as IC50 (concentration required to produce 50% inhibition of enzyme activity). Male SHRs (15-16 weeks old, Charles River, Wilmington, Mass., USA) were used in the study. On the day of the study, animals were weighed and randomly assigned to be dosed with either vehicle (control) or the appropriate dose of nepicastat (3, 10, 30 or 100 mg.kg^−1, po) or (R)-5-Aminomethyl-1-(5,7-difluoro-1,2,3,4-tetrahydronaphth-2-yl)-2,3-dihydro-2-thioxo-1H-imidazole hydrochloride (30 mg.kg^−1, po) three consecutive times, twelve hours apart. At six hours after the third dose, the rats were anaesthetized with halothane, decapitated and tissues (cerebral cortex, mesenteric artery and left ventricle) were rapidly harvested, weighed, placed in iced perchloric acid (0.4 M), frozen in liquid nitrogen and stored at −70° C. until subsequent analysis. To quantify noradrenaline and dopamine concentrations, tissues were homogenized by brief sonication and centrifuged at 13,000 rpm for 30 minutes at 4° C. The supernatant, spiked with 3,4-dihydroxybenzylamine (internal standard), was assayed for noradrenaline and dopamine by HPLC using electrochemical detection.
(§2) In vitro assay of selected enzymes and neurotransmitter receptors. The activity of 2a at eleven different enzymes was determined using established assays (PanLabs Inc, Foster City, Calif.). The affinity of 2a for thirteen selected receptors was determined by radioligand binding assays using standard filtration techniques and membrane preparations. Binding data were analyzed by iterative curve fitting to a four parameter logistic equation. Ki values were calculated using the Cheng-Prusoff equation.

β2 adrenoceptors = β2 adrenoceptors (Homo sapiens, UniProt P07550); assay: Radioligand binding assay
Sequence of β2 adrenoceptors (P07550 whole entry): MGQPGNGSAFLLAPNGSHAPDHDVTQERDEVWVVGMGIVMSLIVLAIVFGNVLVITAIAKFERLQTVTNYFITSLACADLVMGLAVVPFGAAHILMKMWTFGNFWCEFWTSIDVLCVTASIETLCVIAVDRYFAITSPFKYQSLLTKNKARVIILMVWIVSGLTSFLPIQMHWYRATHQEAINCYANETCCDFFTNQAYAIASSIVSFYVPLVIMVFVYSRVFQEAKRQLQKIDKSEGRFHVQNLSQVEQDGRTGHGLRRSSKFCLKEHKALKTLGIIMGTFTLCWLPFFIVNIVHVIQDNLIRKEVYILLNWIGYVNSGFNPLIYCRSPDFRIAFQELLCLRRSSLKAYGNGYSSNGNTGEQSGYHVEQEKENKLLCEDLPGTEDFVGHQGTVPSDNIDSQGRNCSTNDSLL
Experimental: as §1, §2

M1 muscarinic receptors = M1 muscarinic receptors (Homo sapiens, UniProt P11229); assay: Radioligand binding assay
Sequence of M1 muscarinic receptors (P11229 whole entry): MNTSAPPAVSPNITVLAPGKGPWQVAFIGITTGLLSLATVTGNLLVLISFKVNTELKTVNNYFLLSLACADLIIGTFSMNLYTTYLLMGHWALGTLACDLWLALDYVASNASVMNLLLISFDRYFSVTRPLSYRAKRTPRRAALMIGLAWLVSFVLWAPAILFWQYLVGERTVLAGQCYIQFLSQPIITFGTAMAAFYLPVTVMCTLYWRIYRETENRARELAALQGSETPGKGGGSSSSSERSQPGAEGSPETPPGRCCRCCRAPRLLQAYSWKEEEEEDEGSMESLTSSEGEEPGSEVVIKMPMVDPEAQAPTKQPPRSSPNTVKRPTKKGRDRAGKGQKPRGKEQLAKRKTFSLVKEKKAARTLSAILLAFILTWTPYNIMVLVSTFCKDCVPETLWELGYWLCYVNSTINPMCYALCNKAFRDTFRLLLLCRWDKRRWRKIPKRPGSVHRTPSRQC
Experimental: as §1, §2

α2A adrenoceptors = α2A adrenoceptors (Homo sapiens, UniProt P08913); assay: Radioligand binding assay
Sequence of α2A adrenoceptors (P08913 whole entry): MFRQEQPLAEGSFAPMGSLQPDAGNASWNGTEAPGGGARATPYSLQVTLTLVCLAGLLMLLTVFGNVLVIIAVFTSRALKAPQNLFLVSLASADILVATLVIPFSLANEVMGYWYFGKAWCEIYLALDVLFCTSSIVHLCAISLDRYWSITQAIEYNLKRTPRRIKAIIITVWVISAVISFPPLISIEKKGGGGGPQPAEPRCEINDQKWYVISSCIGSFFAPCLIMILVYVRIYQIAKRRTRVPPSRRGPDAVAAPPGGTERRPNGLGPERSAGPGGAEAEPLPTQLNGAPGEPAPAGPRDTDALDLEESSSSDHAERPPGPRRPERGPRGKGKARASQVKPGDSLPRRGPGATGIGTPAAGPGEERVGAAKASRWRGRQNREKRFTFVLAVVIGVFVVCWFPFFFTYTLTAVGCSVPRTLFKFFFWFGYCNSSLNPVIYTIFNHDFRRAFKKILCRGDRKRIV
Experimental: as §1, §2

μ opioid receptors = μ opioid receptors (Homo sapiens, UniProt P35372); assay: Radioligand binding assay
Sequence of μ opioid receptors (P35372 whole entry): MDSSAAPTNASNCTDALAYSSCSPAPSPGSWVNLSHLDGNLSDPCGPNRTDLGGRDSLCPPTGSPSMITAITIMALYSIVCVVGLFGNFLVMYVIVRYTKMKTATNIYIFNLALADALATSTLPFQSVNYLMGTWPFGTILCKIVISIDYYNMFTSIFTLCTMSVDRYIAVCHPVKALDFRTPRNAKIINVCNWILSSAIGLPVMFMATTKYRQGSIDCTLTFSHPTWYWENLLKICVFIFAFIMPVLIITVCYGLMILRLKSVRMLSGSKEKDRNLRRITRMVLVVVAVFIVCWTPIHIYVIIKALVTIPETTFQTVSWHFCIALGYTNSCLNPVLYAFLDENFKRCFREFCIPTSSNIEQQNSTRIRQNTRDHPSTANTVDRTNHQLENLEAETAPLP
Experimental: as §1, §2

β1 adrenoceptors = β1 adrenoceptors (Homo sapiens, UniProt P08588); assay: Radioligand binding assay
Sequence of β1 adrenoceptors (P08588 whole entry): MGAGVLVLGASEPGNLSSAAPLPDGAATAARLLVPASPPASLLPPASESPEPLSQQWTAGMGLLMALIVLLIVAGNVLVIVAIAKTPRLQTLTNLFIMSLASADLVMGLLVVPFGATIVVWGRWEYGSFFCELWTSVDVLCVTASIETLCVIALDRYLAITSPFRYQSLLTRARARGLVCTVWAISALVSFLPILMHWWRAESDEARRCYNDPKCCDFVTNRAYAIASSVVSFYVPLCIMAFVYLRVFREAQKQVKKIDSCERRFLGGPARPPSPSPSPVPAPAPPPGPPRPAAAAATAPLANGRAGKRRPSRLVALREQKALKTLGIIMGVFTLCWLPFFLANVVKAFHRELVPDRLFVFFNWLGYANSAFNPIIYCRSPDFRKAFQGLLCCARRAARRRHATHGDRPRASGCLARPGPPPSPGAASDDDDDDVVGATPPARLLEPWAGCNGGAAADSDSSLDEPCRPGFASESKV
Experimental: as §1, §2

[1] = biological target: 5-HT2A serotonin receptors (Homo sapiens, UniProt P28223); assay: Radioligand binding assay
Sequence of 5-HT2A serotonin receptors (P28223 whole entry): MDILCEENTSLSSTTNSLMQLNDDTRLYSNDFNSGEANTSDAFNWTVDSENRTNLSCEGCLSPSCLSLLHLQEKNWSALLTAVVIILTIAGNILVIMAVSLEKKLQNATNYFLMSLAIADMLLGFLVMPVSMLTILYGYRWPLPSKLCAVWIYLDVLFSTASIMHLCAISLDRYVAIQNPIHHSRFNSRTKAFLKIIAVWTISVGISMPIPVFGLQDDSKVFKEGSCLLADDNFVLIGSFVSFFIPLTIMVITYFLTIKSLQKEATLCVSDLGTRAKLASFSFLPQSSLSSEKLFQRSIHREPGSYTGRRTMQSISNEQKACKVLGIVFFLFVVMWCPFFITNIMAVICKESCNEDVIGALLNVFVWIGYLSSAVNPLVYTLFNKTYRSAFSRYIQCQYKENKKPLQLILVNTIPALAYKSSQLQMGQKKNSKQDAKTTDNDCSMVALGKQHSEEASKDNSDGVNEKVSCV
Experimental: as §1, §2

⊕1B adrenoceptors = ⊕1B adrenoceptors (Homo sapiens, UniProt P35368); assay: Radioligand binding assay
Sequence of ⊕1B adrenoceptors (P35368 whole entry): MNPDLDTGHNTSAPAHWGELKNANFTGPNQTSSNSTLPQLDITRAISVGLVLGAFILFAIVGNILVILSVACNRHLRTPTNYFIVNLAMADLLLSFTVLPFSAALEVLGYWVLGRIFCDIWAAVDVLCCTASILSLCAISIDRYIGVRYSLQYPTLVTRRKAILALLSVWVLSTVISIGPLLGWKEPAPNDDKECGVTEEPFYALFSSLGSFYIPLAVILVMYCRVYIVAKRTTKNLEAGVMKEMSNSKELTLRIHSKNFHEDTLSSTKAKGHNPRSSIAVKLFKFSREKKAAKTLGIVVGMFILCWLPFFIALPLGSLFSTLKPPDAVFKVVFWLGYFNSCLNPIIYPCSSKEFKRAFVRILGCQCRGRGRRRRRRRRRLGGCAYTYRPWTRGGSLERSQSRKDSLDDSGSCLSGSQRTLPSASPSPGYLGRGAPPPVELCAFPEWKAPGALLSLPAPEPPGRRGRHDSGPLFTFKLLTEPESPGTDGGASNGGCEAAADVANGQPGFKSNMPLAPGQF
Experimental: as §1, §2

[2] = biological target: 5-HT2C serotonin receptors (Homo sapiens, UniProt P28335); assay: Radioligand binding assay
Sequence of 5-HT2C serotonin receptors (P28335 33-458): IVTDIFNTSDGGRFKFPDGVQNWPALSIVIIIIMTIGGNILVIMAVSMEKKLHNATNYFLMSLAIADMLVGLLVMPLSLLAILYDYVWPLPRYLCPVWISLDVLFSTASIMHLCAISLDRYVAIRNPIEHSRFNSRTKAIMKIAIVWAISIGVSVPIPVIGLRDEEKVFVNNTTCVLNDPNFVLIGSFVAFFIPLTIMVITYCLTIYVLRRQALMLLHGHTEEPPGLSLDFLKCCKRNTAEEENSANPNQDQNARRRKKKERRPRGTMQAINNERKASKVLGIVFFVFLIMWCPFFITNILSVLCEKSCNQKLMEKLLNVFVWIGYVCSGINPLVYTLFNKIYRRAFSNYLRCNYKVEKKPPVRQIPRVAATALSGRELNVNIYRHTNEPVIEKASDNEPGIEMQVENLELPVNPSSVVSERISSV
Experimental: as §1, §2

D1 dopamine receptors = D1 dopamine receptors (Homo sapiens, UniProt P21728); assay: Radioligand binding assay
Sequence of D1 dopamine receptors (P21728 whole entry): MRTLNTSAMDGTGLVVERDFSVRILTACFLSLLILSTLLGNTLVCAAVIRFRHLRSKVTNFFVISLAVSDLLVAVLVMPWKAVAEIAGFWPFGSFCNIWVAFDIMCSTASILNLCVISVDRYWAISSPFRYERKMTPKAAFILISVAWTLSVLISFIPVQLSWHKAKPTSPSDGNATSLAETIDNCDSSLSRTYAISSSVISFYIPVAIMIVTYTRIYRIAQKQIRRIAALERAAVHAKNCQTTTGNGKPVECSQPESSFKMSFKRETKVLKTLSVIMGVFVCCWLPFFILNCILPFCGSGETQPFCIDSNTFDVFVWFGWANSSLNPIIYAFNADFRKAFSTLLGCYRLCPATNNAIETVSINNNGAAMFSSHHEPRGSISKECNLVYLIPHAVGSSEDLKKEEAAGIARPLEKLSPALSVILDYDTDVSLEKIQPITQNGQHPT
Experimental: as §1, §2

[3] = biological target: 5-HT1A serotonin receptors (Homo sapiens, UniProt P08908); assay: Radioligand binding assay
Sequence of 5-HT1A serotonin receptors (P08908 whole entry): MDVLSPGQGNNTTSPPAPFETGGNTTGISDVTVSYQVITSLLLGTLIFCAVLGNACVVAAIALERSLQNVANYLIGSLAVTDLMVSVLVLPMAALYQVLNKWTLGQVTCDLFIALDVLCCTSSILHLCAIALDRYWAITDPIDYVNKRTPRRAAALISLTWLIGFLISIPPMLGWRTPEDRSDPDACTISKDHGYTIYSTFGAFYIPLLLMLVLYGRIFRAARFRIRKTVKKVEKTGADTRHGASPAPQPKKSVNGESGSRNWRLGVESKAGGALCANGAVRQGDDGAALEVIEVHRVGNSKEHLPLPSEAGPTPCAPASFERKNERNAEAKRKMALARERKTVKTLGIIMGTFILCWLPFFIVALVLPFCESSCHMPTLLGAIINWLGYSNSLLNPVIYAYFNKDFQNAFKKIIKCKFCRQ
Experimental: as §1, §2

α2B adrenoceptors = α2B adrenoceptors (Homo sapiens, UniProt P18089); assay: Radioligand binding assay
Sequence of α2B adrenoceptors (P18089 whole entry): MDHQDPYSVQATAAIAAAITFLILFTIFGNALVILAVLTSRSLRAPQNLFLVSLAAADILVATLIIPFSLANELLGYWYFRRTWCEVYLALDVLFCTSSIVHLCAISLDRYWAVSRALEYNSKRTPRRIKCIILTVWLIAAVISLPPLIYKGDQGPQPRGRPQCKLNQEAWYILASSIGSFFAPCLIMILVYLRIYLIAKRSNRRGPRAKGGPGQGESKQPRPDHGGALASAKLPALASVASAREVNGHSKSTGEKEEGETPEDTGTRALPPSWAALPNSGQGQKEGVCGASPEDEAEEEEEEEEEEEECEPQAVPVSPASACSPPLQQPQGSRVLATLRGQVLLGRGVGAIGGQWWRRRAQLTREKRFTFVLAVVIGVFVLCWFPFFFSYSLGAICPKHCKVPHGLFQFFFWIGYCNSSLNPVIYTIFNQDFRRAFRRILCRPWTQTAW
Experimental: as §1, §2

[4] = system: mean arterial pressure and heart rate; assay: Hemodynamic study in conscious, restrained SHR; assay type: in vivo, spontaneously hypertensive rats (SHR)
Experimental: FIG. 13: Effects of orally administered 2a on mean arterial pressure in conscious, restrained spontaneously hypertensive rats (SHR). SHR were lightly anesthetized with ether and instrumented for measurement of arterial pressure and drug administration. The animals were placed in restrainers and allowed to recover for 30-40 minutes. […] All data are expressed as mean±standard error of mean. n=6-8 per group. […] IR spectra were recorded on a Nicolet SPC FT-IR spectrometer. UV spectra were recorded on a Varian Cary 3 UV-Visible spectrometer, Leeman Labs Inc. Optical rotations were measured in a Perkin-Elmer Model 141 polarimeter. […] Hemodynamic study in SHR. Male SHR (15-16 week old) were used in the study. The animals were lightly anesthetized with ether and the left femoral artery and vein were catheterized for measurement of blood pressure and drug administration, respectively. The animals were placed in restrainers and allowed to recover for 30-40 min. […] The animals were then anesthetized with pentobarbital, placed on a heating pad (37° C.) and ventilated with a Harvard rodent ventilator. After administration of atropine (1 mg/kg, iv) and tubocurarine (1 mg/kg, iv), the animals were pithed through the orbit of the eye with a stainless steel rod. The […] rod was stimulated electrically with 1 ms pulses of 80V at different frequencies (0.15, 0.45, 1.5, 5, 15 Hz) to obtain frequency-pressor response curves.

locomotor activity = assay: Infrared activity monitoring (IRAM) in MPTP-lesioned monkeys; assay type: in vivo, squirrel monkeys (Saimiri sciureus)
Experimental: Drug nepicastat or water (as placebo) was administered for 12 days following a minimum 2 day washout after L-Dopa dosing. Drug was administered twice daily at 10 am and 2 pm by oral gavage. Behavior was rated by IRAM and CRS. The CRS was conducted in the morning, 60 to 90 minutes after the 10 am dose of nepicastat on the last 5 days of drug treatment. Raters (one to three individuals) were blinded to the different treatment groups. IRAM assessments were preformed for 90 minutes immediately following drug administration at 2 pm on the last 5 days of drug treatment.
IRAM Locomotor activity was monitored every 10 minutes for a minimum of 90 minutes following each drug level. A higher rating is considered a faster (less parkinsonian) animal.
Statistical analysis consisted of descriptive statistics and graphing the mean of each 10 minutes data blocks of placebo and experimental drug at 1, 4, and 10 mg/kg. The graph was then examined to detect any trends. Further statistical analysis was not performed since no difference was determined from graphical analysis.

SMILES: Cl.NCc1c[nH]c(=S)n1[C@H]1CCc2c(F)cc(F)cc2C1 [nepicastat, (S)-5-Aminomethyl-1-(5,7-difluoro-1,2,3,4-tetrahydronaphth-2-yl)-2,3-dihydro-2-thioxo-1H-imidazole hydrochloride]
- Ki (D2 dopamine receptors): > 10 µM
- Ki (β2 adrenoceptors): > 10 µM
- Ki (M1 muscarinic receptors): > 10 µM
- Ki (α2A adrenoceptors): > 10 µM
- Ki (μ opioid receptors): > 10 µM
- Ki (β1 adrenoceptors): > 10 µM
- Ki [1]: > 10 µM
- Ki (⊕1B adrenoceptors): > 10 µM
- Ki [2]: > 10 µM
- Ki (D1 dopamine receptors): > 10 µM
- Ki [3]: > 10 µM
- Ki (α2B adrenoceptors): > 10 µM
- decrease in heart rate ([4]; 10 mg/kg oral): 9.8%
- maximal decrease in mean blood pressure ([4]; 10 mg/kg oral): 53±4 mmHg
- reduction in mean blood pressure relative to vehicle control ([4]; 10 mg/kg oral): 33%
- decrease in pressure ([4]; 10 mg/kg, 4 hours after dosing): −46 mmHg
- decrease in heart rate ([4]; 30 mg/kg oral): 10.5%
- duration of antihypertensive effects ([4]; acute oral administration): > 4 h
- time to plateau of antihypertensive response ([4]; oral dosing): 3 to 4 h
- activity monitoring compared to placebo (locomotor activity; 1 mg/kg/day): slower than placebo treatment
- activity monitoring compared to placebo (locomotor activity; 4 and 10 mg/kg/day, 10 to 90 minutes post-dosing): no difference
